Values after ≈ are worked out from the molar mass of the structure shown.

For test [1], the system named is Candida albicans. Briefly: Antifungal activity against Candida albicans by agar dilution method. The format is functional. A general note: In agar dilution the substance is mixed into plates at graded concentrations.
The subject of test [2] is Pseudomonas aeruginosa. Briefly: Potency index, ratio of ampicillin MIC to compound MIC for Pseudomonas aeruginosa by agar dilution method. The format is functional.
Test [3] concerns Mycobacterium tuberculosis. Briefly: Antimycobacterial activity against Mycobacterium tuberculosis. The class given is functional.
For test [4], the system named is Mycobacterium tuberculosis. As to the kind of experiment: microbe, parasite or virus in culture. Particulars: 120 h.
In test [5] the test system is Escherichia coli. Briefly: Antibacterial activity against Escherichia coli assessed as inhibition of bacterial growth. The format is functional.
Test [6] relates to Bacillus subtilis. As to the kind of experiment: microbe, parasite or virus in culture.
Test [7] deals with Pseudomonas aeruginosa. As to the kind of experiment: Antibacterial activity against Pseudomonas aeruginosa assessed as inhibition of bacterial growth. The class given is functional.
The test system of test [8] is Staphylococcus aureus. Briefly: microbe, parasite or virus in culture.
In another test the target is Carbonic anhydrase 2 (Homo sapiens, UniProt P00918).
For a further test, the target named is Carbonic anhydrase 1 (Homo sapiens, UniProt P00915).
Carbonic anhydrase 1, sequence (P00915 whole entry): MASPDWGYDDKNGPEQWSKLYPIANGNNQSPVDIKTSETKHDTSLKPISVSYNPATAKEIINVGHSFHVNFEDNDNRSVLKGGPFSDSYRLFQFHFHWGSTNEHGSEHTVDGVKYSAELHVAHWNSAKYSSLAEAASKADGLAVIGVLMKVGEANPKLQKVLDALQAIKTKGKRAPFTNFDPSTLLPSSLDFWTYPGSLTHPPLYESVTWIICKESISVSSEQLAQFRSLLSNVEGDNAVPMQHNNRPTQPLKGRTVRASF
The target of a further test is Carbonic anhydrase 12 (Homo sapiens, UniProt O43570). As to the kind of experiment: Inhibition of human CA12.
Carbonic anhydrase 12, sequence (O43570 whole entry): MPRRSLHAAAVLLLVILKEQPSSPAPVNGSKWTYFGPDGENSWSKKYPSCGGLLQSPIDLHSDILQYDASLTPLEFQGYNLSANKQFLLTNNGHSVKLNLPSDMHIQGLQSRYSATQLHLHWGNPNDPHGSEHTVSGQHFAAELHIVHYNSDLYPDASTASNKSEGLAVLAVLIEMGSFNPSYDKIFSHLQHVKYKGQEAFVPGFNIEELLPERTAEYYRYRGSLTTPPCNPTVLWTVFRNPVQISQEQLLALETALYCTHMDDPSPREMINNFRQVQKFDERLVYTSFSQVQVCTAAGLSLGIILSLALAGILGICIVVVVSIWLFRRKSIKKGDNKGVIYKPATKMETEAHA
Another test deals with Plasmodium falciparum. As to the kind of experiment: Antimalarial activity against chloroquine-sensitive Plasmodium falciparum NF54 measured after 72 hrs by giemsa staining based analysis. The class given is functional, organism-based. The conditions noted are these: NF54, 72 h.
The test system of another test is Aspergillus niger. As to the kind of experiment: Antifungal activity against Aspergillus niger by agar dilution method. The class given is functional.
Another test deals with HepG2. Briefly: Cytotoxicity against human HepG2 cells assessed as growth inhibition. The format is functional, cell-based.
Test [9] relates to Escherichia coli. Briefly: Antibacterial activity against Escherichia coli by agar dilution method. The class given is functional.
Test [10] relates to Pseudomonas aeruginosa. As to the kind of experiment: Antibacterial activity against Pseudomonas aeruginosa by agar dilution method. The format is functional.
The test system of test [11] is Staphylococcus aureus. As to the kind of experiment: Antibacterial activity against Staphylococcus aureus by agar dilution method. The class given is functional.
Test [12] has as its system Bacillus subtilis. Briefly: Antibacterial activity against Bacillus subtilis by agar dilution method. The format is functional.
Test [13] has as its system Escherichia coli. As to the kind of experiment: Potency index, ratio of ampicillin MIC to compound MIC for Escherichia coli by agar dilution method. The class given is functional.
Another test deals with Acetylcholinesterase (Homo sapiens, UniProt P22303).
Acetylcholinesterase, sequence (P22303 whole entry): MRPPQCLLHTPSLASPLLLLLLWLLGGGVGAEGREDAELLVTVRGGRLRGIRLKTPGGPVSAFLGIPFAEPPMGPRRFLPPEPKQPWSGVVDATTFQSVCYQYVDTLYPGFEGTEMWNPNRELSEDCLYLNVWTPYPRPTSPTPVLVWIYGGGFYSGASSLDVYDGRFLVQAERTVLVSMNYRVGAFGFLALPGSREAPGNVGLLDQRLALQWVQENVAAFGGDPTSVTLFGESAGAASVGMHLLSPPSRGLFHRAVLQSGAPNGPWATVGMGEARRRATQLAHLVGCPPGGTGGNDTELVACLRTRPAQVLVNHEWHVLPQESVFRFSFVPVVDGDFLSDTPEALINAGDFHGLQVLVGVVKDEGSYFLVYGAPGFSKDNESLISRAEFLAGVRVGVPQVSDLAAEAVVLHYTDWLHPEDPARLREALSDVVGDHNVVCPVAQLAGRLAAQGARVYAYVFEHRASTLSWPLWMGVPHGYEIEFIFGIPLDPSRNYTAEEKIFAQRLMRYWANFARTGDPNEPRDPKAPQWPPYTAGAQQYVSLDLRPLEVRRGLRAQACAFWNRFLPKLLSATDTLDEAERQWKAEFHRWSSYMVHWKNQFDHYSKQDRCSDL
The next test addresses Carbonic anhydrase 9 (Homo sapiens, UniProt Q16790). Briefly: Inhibition of human CA9.
Test [14] relates to Bordetella bronchiseptica. Briefly: Antibacterial activity against Bordetella bronchiseptica ATCC 4617 by plate dilution method. The format is functional.
Test [15] concerns Candida albicans. Briefly: Antifungal activity against Candida albicans assessed as reduction in microbial growth. The format is functional.
The next test concerns Cryptococcus neoformans. Briefly: Antifungal activity against Cryptococcus neoformans assessed as reduction in microbial growth. The class given is functional.
Test [16] can be described thus: Cytotoxicity against human Panel NCI-58 (58 carcinoma cell lines) cells. The class given is functional.
The subject of test [17] is Pseudomonas aeruginosa. As to the kind of experiment: Antibacterial activity against Pseudomonas aeruginosa ATCC 27853 by plate dilution method. The class given is functional.
Another test has as its system Proteus vulgaris. Briefly: Antibacterial activity against Proteus vulgaris ATCC 9920 by plate dilution method. The format is functional.
The next test has as its system Enterococcus faecalis. Briefly: Antibacterial activity against Enterococcus faecalis ATCC 29212 by plate dilution method. The format is functional.
Another test concerns Bacillus cereus. As to the kind of experiment: Antibacterial activity against Bacillus cereus ATCC 9946 by plate dilution method. The class given is functional.
Test [18] deals with Staphylococcus epidermidis. As to the kind of experiment: Antibacterial activity against Staphylococcus epidermidis ATCC 12228 by plate dilution method. The class given is functional.
The subject of test [19] is Bacillus subtilis. Briefly: Antibacterial activity against Bacillus subtilis ATCC 6633 by plate dilution method. The class given is functional.
The next test relates to Klebsiella pneumoniae. As to the kind of experiment: Antibacterial activity against Klebsiella pneumoniae ATCC 700603 by plate dilution method. The format is functional.
Test [20] concerns Staphylococcus aureus. As to the kind of experiment: Antibacterial activity against Staphylococcus aureus ATCC 25923 by plate dilution method. The class given is functional.
The test system of test [21] is Escherichia coli. Briefly: Antibacterial activity against Escherichia coli ATCC 25922 by plate dilution method. The class given is functional.
Test [22] concerns Mycobacterium tuberculosis. Briefly: microbe, parasite or virus in culture. The conditions noted are these: H37Rv.
The species named for test [23] is Mus musculus. Briefly: Antidepressant activity in Swiss albino mouse assessed as decrease in immobility time by forced swimming test. The class given is functional.
Test [24] is filed under the species Mus musculus. As to the kind of experiment: Antidepressant activity in Swiss albino mouse assessed as decrease in immobility time by tail suspension test. The format is functional.

As for `Cc1cccc2cc(C3CC(c4cc(Br)ccc4O)=NN3)c3nnnn3c12` (centres undefined), the MIC in the test on Candida albicans [1] was found to be 25 mg/L (≈ 59.1 µM). For the same molecule, in the test on Pseudomonas aeruginosa [2], the Ratio is reported as 2.

For `CN[C@@H]1[C@H](O[C@H]2[C@H](O[C@H]3[C@H](O)[C@@H](O)[C@H](N=C(N)N)[C@@H](O)[C@@H]3N=C(N)N)O[C@@H](C)[C@]2(O)C=O)O[C@@H](CO)[C@H](O)[C@H]1O` [STREPTOMYCIN], the MIC in [3] and in [4] was 6.25 mg/L (≈ 10.7 µM) each time.

On to `COc1cccc2cc(C3CC(c4cc(Br)ccc4O)=NN3)c3nnnn3c12` (centres undefined), for which, in the test with Pseudomonas aeruginosa [2], the Ratio came to 2.

In the case of `CC1(C)S[C@@H]2[C@H](NC(=O)Cc3ccccc3)C(=O)N2[C@H]1C(=O)O` [PENICILLIN G], the MIC in the test on Escherichia coli [5] was 3.12 mg/L (≈ 9.35 µM); against Bacillus subtilis [6], 0.39 mg/L (≈ 1.17 µM); with Pseudomonas aeruginosa [7], 3.12 mg/L (≈ 9.35 µM); against Staphylococcus aureus [8] it was 0.39 mg/L (≈ 1.17 µM).

In the case of `NS(=O)(=O)c1ccc(C(=O)N2N=C(c3ccccc3)CC2c2ccc(F)cc2)cc1` (centres undefined), the inhibition constant (Ki) worked out at 0.0317 µM at Carbonic anhydrase 2, 0.0878 µM on Carbonic anhydrase 1 and 0.0071 µM at Carbonic anhydrase 12.

Take `COc1cc(C)c(/C=C/C(=O)c2ccc(Br)cc2)cc1C(C)C`: in the test with Plasmodium falciparum, the IC50 was under 2 µM.

On to `COc1cccc2cc(C3CC(c4cc(Br)ccc4O)=NO3)c3nnnn3c12` (centres undefined), for which the MIC with Candida albicans [1] and against Aspergillus niger was 25 mg/L (≈ 56.8 µM) each time.

`Clc1ccc(-c2csc(N3N=C(c4cccs4)CC3c3ccc(Cl)cc3Cl)n2)cc1` (centres undefined): the concentration for half-maximal inhibition (IC50) in the test with HepG2 is 2.98 µM.

In the case of `Oc1ccc(Br)cc1C1=NNC(c2cc3ccccc3n3nnnc23)C1` (centres undefined), the MIC turned out to be 50 mg/L (≈ 122 µM) in the test on Escherichia coli [9], 50 mg/L (≈ 122 µM) in the test on Pseudomonas aeruginosa [10], 25 mg/L (≈ 61.1 µM) against Staphylococcus aureus [11] and 25 mg/L (≈ 61.1 µM) in the test on Bacillus subtilis [12]. In addition, the Ratio in the test on Escherichia coli [13] and with Pseudomonas aeruginosa [2] was 2 each time.

Regarding `O=C(/C=C/c1ccc(N2CCCCC2)cc1)c1sccc1Cl`, on Acetylcholinesterase, half-maximal inhibition (IC50) required 0.16 µM.

On to `NS(=O)(=O)c1ccc(C(=O)N2N=C(c3ccc(F)cc3)CC2c2ccccc2)cc1` (centres undefined), for which the inhibition constant (Ki) on Carbonic anhydrase 9 is 0.0055 µM; on Carbonic anhydrase 2, 0.0317 µM; on Carbonic anhydrase 1 it was 0.0878 µM; on Carbonic anhydrase 12, 0.0071 µM.

With `COc1ccc(C2=NN(C(=O)c3ccc(S(N)(=O)=O)cc3)C(c3ccccc3)C2)c(OC)c1` (centres undefined), the Ki at Carbonic anhydrase 9 amounted to 0.0055 µM; at Carbonic anhydrase 2, 0.0317 µM; on Carbonic anhydrase 1 it was 0.0878 µM; on Carbonic anhydrase 12, 0.0071 µM.

In the case of `NS(=O)(=O)c1ccc(C(=O)N2N=C(c3ccc(F)cc3)CC2c2ccc(F)cc2)cc1` (centres undefined), the Ki at Carbonic anhydrase 9 worked out at 0.0055 µM; on Carbonic anhydrase 2, 0.0317 µM; at Carbonic anhydrase 1, 0.0878 µM; on Carbonic anhydrase 12, 0.0071 µM.

In turn, `COc1cc(C)c(/C=C/C(=O)c2cc(OC)c(OC)c(OC)c2)cc1C(C)C` returned a half-inhibitory concentration (IC50) in the test on Plasmodium falciparum of under 2 µM.

On to `O=c1oc2ccc(I)cc2cc1-c1csc(N2N=C(c3ccccc3F)CC2c2cc3ccccc3nc2Cl)n1` (centres undefined), for which the MIC in test [14] turned out to be 50 mg/L (≈ 73.6 µM).

Regarding `NC[C@H]1O[C@H](O[C@H]2[C@H](O)[C@@H](O[C@H]3O[C@H](CO)[C@@H](O)[C@H](N)[C@H]3O)[C@H](N)C[C@@H]2N)[C@H](N)[C@@H](O)[C@@H]1O` [BEKANAMYCIN], the MIC in the test on Escherichia coli [5], with Bacillus subtilis [6], with Pseudomonas aeruginosa [7] and in the test on Staphylococcus aureus [8] was 1.56 mg/L (≈ 3.23 µM) in each case.

With `COc1cc(C2CC(c3cccc(Nc4ccnc5cc(Cl)ccc45)c3)=NN2c2ccc(Cl)cc2)cc(OC)c1OC` (centres undefined), the MIC50 with Candida albicans [15] and in the test with Cryptococcus neoformans was 3.9 mg/L in each case. Besides, the GI50 in [16] is under 1 µM.

Turning to `O=c1oc2ccc(F)cc2cc1-c1csc(N2N=C(c3cccc(F)c3)CC2c2cc3ccccc3nc2Cl)n1` (centres undefined), the MIC (with Pseudomonas aeruginosa [17]; in the test with Proteus vulgaris; in [14]; against Enterococcus faecalis; in the test on Bacillus cereus; in [18]) was 50 mg/L (≈ 87.6 µM) throughout. In addition, the MIC against Bacillus subtilis [19], with Klebsiella pneumoniae, with Staphylococcus aureus [20] and in the test with Escherichia coli [21] was 50 mg/L (≈ 87.6 µM) in each case.

For `O=C1N=C(N2N=C(c3cccs3)CC2c2cc(Cl)ccc2Cl)S/C1=N/Nc1ccc(Cl)cc1` (centres undefined), the half-inhibitory concentration (IC50) with HepG2 was found to be 3.54 µM.

`COc1ccc(C2=CC(c3cc(C(C)C)c(OC)cc3C)N(C(=O)OC(C)C)N2C(=O)OC(C)C)cc1OC` (centres undefined) registered a concentration for half-maximal inhibition (IC50) in the test on Plasmodium falciparum of under 2 µM.

`Cc1nc(-c2cc(F)cc(F)c2)ccc1C1=NNC(c2c(F)cccc2Cl)C1` (centres undefined) gave an MIC in [22] of 12.5 mg/L (≈ 31.1 µM). The Time in the test listed under Mus musculus [23] was 66.67 s; in the test filed under Mus musculus [24] it was 70.33 s.

Usually Ki stands for the equilibrium dissociation constant of an inhibitor or competing ligand from its target. In general, IC50 refers to the concentration at which inhibition is half-maximal. By MIC50 is commonly meant the lowest concentration that inhibits either 50% of growth or 50% of the strains tested, depending on the study. In general, GI50 refers to the concentration that inhibits growth by half. A higher GI50 goes with less potent growth inhibition.

The values are drawn from ChEMBL document CHEMBL5260848, “Recent advancements in the development of bioactive pyrazoline derivatives” (Eur J Med Chem, 2020).
